Laboratory results taken from patent US8614223B2, “Pyrimidine hydroxy amide compounds as protein deacetylase inhibitors and methods of use thereof” (Acetylon Pharmaceuticals, Inc., priority 2010, dated 2013).
pIC50: −log10 of the molar value.

Columns and labels:
[1] = target: HDAC6 (Homo sapiens (Human), UniProt Q9UBN7); conditions: read-out: HDAC6 IC50
[2] = target: HDAC1 (Homo sapiens (Human), UniProt Q13547); experiment: HDAC enzyme assay, HDAC1; conditions: for HDAC1 fold over HDAC6 IC50 (selectivity for HDAC6): ratio HDAC1/HDAC6; for pIC50: read-out: HDAC1 IC50
Sequence of HDAC1 (Q13547 whole entry): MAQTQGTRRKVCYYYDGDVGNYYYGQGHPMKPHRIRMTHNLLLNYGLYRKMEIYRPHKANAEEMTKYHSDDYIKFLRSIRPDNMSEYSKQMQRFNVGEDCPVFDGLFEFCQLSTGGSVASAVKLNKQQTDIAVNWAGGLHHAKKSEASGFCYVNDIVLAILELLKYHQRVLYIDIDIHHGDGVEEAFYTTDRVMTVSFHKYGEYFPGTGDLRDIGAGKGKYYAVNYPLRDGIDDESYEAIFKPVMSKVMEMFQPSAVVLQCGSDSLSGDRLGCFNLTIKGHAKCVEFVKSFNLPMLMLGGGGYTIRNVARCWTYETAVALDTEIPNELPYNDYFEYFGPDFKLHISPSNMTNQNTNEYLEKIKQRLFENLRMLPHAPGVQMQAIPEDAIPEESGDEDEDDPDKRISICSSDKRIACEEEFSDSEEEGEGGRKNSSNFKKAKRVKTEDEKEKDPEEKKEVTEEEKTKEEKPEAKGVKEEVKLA

[3] = target: HDAC2 (Homo sapiens (Human), UniProt Q92769); experiment: HDAC enzyme assay, HDAC2; conditions: for HDAC2 fold over HDAC6 IC50 (selectivity for HDAC6): ratio HDAC2/HDAC6; for pIC50: read-out: HDAC2 IC50
Sequence of HDAC2 (Q92769 whole entry): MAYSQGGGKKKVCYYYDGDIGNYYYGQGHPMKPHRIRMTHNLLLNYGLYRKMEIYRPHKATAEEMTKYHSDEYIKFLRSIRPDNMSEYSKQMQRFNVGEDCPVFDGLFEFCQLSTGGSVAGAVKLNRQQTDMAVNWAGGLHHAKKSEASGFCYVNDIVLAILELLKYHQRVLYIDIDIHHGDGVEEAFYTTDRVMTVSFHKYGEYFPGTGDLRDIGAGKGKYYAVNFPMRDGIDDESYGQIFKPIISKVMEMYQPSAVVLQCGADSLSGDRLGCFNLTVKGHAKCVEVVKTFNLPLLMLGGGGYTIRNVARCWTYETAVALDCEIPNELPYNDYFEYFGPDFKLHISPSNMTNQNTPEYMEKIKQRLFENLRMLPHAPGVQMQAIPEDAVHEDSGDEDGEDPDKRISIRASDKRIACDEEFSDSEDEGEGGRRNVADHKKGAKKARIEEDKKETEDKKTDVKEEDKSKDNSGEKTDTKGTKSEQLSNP

[4] = target: HDAC3 (Homo sapiens (Human), UniProt O15379); experiment: HDAC enzyme assay, HDAC3; conditions: for HDAC3 fold over HDAC6 IC50 (selectivity for HDAC6): ratio HDAC3/HDAC6; for pIC50: read-out: HDAC3 IC50
Sequence of HDAC3 (O15379 whole entry): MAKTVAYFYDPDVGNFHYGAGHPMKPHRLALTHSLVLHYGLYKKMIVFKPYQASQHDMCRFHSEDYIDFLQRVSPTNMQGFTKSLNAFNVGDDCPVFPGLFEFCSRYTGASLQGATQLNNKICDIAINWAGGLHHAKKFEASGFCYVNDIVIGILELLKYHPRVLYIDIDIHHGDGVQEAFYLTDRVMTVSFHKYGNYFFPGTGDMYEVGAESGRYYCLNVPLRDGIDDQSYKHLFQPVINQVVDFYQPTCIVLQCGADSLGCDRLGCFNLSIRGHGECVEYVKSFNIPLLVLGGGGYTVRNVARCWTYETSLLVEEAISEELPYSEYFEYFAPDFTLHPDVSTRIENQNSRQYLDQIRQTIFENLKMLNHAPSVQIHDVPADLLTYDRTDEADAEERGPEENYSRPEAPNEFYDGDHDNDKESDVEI
Sequence of HDAC3 (Q9Y618 395-489 partner): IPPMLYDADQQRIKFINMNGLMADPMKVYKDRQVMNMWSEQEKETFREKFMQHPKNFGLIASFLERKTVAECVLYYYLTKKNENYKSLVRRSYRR

Sequence of HDAC6 (Q9UBN7 whole entry): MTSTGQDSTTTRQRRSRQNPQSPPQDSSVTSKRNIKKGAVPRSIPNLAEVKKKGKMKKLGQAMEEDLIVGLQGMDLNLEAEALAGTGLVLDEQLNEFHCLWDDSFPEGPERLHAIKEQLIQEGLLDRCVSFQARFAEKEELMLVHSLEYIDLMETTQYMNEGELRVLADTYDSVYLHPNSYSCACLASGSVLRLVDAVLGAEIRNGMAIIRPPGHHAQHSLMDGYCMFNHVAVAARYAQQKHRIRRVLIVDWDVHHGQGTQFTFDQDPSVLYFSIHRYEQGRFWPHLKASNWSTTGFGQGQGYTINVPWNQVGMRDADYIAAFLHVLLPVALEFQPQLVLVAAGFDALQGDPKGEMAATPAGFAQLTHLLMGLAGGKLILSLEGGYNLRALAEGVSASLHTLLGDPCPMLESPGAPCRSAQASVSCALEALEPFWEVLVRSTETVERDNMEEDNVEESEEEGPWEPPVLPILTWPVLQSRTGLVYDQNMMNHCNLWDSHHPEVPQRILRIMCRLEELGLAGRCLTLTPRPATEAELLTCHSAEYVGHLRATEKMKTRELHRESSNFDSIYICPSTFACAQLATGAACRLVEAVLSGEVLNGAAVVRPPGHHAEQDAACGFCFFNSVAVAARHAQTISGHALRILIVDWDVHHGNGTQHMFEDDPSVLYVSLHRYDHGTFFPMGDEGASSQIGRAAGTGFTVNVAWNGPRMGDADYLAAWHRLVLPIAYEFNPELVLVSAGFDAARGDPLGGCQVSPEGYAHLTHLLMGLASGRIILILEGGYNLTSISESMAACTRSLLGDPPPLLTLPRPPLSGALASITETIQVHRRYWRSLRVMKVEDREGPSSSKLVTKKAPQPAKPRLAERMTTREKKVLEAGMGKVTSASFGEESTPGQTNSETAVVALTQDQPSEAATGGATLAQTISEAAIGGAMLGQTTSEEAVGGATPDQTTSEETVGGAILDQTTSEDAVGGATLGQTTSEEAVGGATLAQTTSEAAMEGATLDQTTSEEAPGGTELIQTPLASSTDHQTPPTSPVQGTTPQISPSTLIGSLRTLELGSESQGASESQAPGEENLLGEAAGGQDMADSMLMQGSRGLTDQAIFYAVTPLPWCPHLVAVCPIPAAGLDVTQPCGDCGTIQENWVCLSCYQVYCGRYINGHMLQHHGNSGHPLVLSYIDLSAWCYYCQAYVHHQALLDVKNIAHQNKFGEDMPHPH

Row | pIC50 [1] | HDAC1 fold over HDAC6 IC50 (selectivity for HDAC6) [2] | pIC50 [2] | HDAC2 fold over HDAC6 IC50 (selectivity for HDAC6) [3] | pIC50 [3] | HDAC3 fold over HDAC6 IC50 (selectivity for HDAC6) [4] | pIC50 [4] | Compound
1 | 8.40 | (3.4x) | 7.92 | (5x) | 7.77 | (8.4x) | 7.54 | O=C(NO)c1cnc(NC2(c3cccc(F)c3F)CC2)nc1 [Compound 143]
2 | 8.40 | (80.1x) | 6.47 | (78x) | 6.48 | (312.9x) | 5.88 | O=C(NO)c1cnc(NC2(c3cccc(F)c3)CCOCC2)nc1 [Compound 149]
3 | 8.30 | (42.1x) | 6.66 | (60.3x) | 6.50 | (68.3x) | 6.45 | O=C(NO)c1cnc(NCc2ccccn2)nc1 [Compound 108]
4 | 8.30 | (26x) | 6.88 | (50.9x) | 6.58 | (37.6x) | 6.71 | Cc1cc(F)cc(Nc2ncc(C(=O)NO)cn2)c1 [Compound 24]
5 | 8.52 | (64.4x) | 6.65 | (78.1x) | 6.57 | (158.8x) | 6.26 | O=C(NO)c1cnc(NC(c2ccc(F)cc2)c2ccc(F)cc2)nc1 [Compound 89]
6 | 8.40 | (7.1x) | 7.57 | (5.5x) | 7.68 | (18.5x) | 7.15 | O=C(NO)c1cnc(NC2(c3ccc(C(F)(F)F)c(F)c3)CC2)nc1 [Compound 137]
7 | 8.52 | (176.7x) | 6.23 | (217.7x) | 6.14 | (685x) | 5.64 | O=C(NO)c1cnc(NC2(c3ccccc3)CCOCC2)nc1 [Compound 95]
8 | 8.40 | (79.5x) | 6.49 | (94.3x) | 6.41 | (206.7x) | 6.07 | O=C(NO)c1cnc(NC2(Cc3ccccc3)CC2)nc1 [Compound 109]
9 | 8.40 | (288.1x) | 5.93 | (374.6x) | 5.82 | (547.1x) | 5.65 | CC(C)(Nc1ncc(C(=O)NO)cn1)c1ccccc1 [Compound 50]
10 | 8.52 | (182.9x) | 6.23 | (193.1x) | 6.21 | (677.2x) | 5.67 | O=C(NO)c1cnc(NC2(c3ccc(F)cc3)CCCC2)nc1 [Compound 148]
11 | 8.10 | (26.7x) | 6.68 | (44.1x) | 6.46 | (44.9x) | 6.45 | O=C(NO)c1cnc(Nc2ccc(F)cc2)nc1 [Compound 3]
12 | 8.40 | (137.3x) | 6.22 | (153.6x) | 6.17 | (304.6x) | 5.88 | Cc1cc(C(C)(C)Nc2ncc(C(=O)NO)cn2)ccc1F [Compound 78]
13 | 8.00 | (19.8x) | 6.69 | (34.7x) | 6.44 | (21.1x) | 6.66 | Cc1cc(Nc2ncc(C(=O)NO)cn2)ccn1 [Compound 31]
14 | 8.52 | (374.2x) | 5.94 | (316.3x) | 6.02 | (616.6x) | 5.73 | CC(C)(Nc1ncc(C(=O)NO)cn1)c1cccc(F)c1 [Compound 75]
15 | 7.40 | (15.3x) | 6.22 | (20.5x) | 6.09 | (22x) | 6.06 | O=C(NO)c1cnc(NCCc2ccccc2-c2ccccc2)nc1 [Compound 59]
16 | 8.40 | (22.8x) | 7.05 | (30.3x) | 6.92 | (27.1x) | 6.97 | O=C(NO)c1cnc(NCCc2c[nH]c3ccccc23)nc1 [Compound 43]
17 | 8.40 | (30.7x) | 6.95 | (51.5x) | 6.73 | (50.1x) | 6.74 | O=C(NO)c1cnc(Nc2cccc(-c3ccccc3)c2)nc1 [Compound 28]
18 | 8.40 | (62.6x) | 6.58 | (92.2x) | 6.41 | (117.9x) | 6.31 | O=C(NO)c1cnc(NCCc2ccccc2Cl)nc1 [Compound 39]
19 | 9.00 | (3.6x) | 8.30 | (3.9x) | 8.22 | (5.9x) | 8.10 | O=C(NO)c1cnc(NC2(c3c(F)cccc3F)CC2)nc1 [Compound 124]
20 | 7.70 | (44.8x) | 6.05 | (45x) | 6.05 | (197.8x) | 5.40 | COc1ccc(C2(Nc3ncc(C(=O)NO)cn3)CCCCC2)cc1 [Compound 122]
21 | 8.52 | (27.5x) | 7.06 | (56.5x) | 6.74 | (44.1x) | 6.85 | O=C(NO)c1cnc(Nc2cccc(-c3ccncc3)c2)nc1 [Compound 30]
22 | 7.89 | (10.8x) | 6.87 | 13.5x) | 6.77 | (14.1x) | 6.75 | O=C(NO)c1cnc(Nc2cc(F)cc(F)c2)nc1 [Compound 18]
23 | 8.52 | (217.2x) | 6.19 | (327.2x) | 6.01 | (441.9x) | 5.88 | CC(C)(Nc1ncc(C(=O)NO)cn1)c1ccc(F)cc1F [Compound 70]
24 | 8.70 | (53.5x) | 6.89 | (58.9x) | 6.85 | (98.1x) | 6.63 | O=C(NO)c1cnc(NC(c2ccccc2)c2ccccc2)nc1 [Compound 60]
25 | 8.30 | (31.4x) | 6.80 | (68.3x) | 6.46 | (53.4x) | 6.57 | O=C(NO)c1cnc(Nc2cc(F)cc(C(F)(F)F)c2)nc1 [Compound 26]
26 | 6.06 | (12.3x | 4.97 | (20.1x) | 4.76 | (18.9x) | 4.79 | O=C(NO)c1cnc(Nc2c(Cl)cccc2Cl)nc1 [Compound 20]
27 | 8.52 | (25.9x) | 7.10 | (34.7x) | 6.97 | (51x) | 6.80 | Cc1ccc(C2(Nc3ncc(C(=O)NO)cn3)CC2)cc1 [Compound 93]
28 | 8.40 | (11.4x) | 6.61 | (10.1x) | 6.66 | (29.9x) | 6.19 | COc1ccc(C2(Nc3ncc(C(=O)NO)cn3)CCCC2)cc1 [Compound 152]
29 | 8.70 | (72.3x) | 6.80 | (130.2x) | 6.54 | (169.4x) | 6.43 | O=C(NO)c1cnc(NC2(c3ccccc3C(F)(F)F)CC2)nc1 [Compound 91]

Row | Compound | pIC50 [1] | HDAC1 fold over HDAC6 IC50 (selectivity for HDAC6) [2] | pIC50 [2] | HDAC2 fold over HDAC6 IC50 (selectivity for HDAC6) [3] | pIC50 [3] | HDAC3 fold over HDAC6 IC50 (selectivity for HDAC6) [4] | pIC50 [4]
30 | O=C(NO)c1cnc(NC2(c3cccc(F)c3)CCCCC2)nc1 [Compound 101] | 8.15 | (283.5x) | 5.67 | (343.2x) | 5.59 | (1498.8x) | 4.95
